Results published in patent US20130102009A1, “SIRTUIN ACTIVATORS AND ACTIVATION ASSAYS” (priority 2010, published 2013).

What was measured:
[1] = target: Ac-Arg-His-Lys-Lys^Ac-NH2; assay: ITC binding of STACs to Ac-Arg-His-Lys-Lys^Ac-X, X=NH2; conditions: 10% DMSO for SRT1720, SRT2183 and 10, no cosolvent for SRT1460
Protocol: (§1) ITC experiments were performed using either a VP-ITC system or iTC200 system (MicroCal) at 26° C. in a buffer composed of 137 mM NaCl, 2.7 mM KCl, 1 mM MgCl2, 2 mM TCEP, 5% (v/v) glycerol and 50 mM HEPES-NaOH, pH 7.3. SIRT1(183-664) was purified and dialyzed against the buffer, centrifuged, and degassed before the experiment. The peptide and compounds were dissolved in the final dialysis buffer and their pH values were adjusted to match that of the protein solution. […] To characterize this interaction using the iTC200 system, 1 mM TAMRA-peptide was injected in 20 aliquots of 2 μL, (except the first injection, which was 0.5 μL) into a 0.202 mL sample cell containing 100 μM STAC. For STACs with poor solubility, the concentrations were adjusted accordingly. […] In all cases, data was corrected for the heat of dilution and fitted using a nonlinear least-squares routine using a single-site binding model with Origin for ITC v7.0383 (Microcal) with the stoichiometry (n), the enthalpy of the reaction (ΔH) and the association constant (Ka) calculated. Table 2 summarizes Kd values for the binding of STACs to […]. Note that except for SRT1460, the solubility of the compounds required that these ITC experiments be done in solutions containing 10% DMSO.

[2] = target: Ac-Arg-His-Lys-Lys^Ac-Phe-NH2; assay: ITC binding of STACs to Ac-Arg-His-Lys-Lys^Ac-X, X=PheNH2; conditions: 10% DMSO for SRT1720, SRT2183 and 10, no cosolvent for SRT1460
Protocol: as §1

[3] = target: T1, SIRT1 (Homo sapiens, UniProt Q96EB6); assay: Continuous PNC1-GDH-coupled assay of SIRT1-catalyzed deacetylation of Ac-Arg-His-Lys-Lys^Ac-X with STACs; format: biochemical; conditions: for Relative Velocity, X=Ala-NH2: Ac-Arg-His-Lys-Lys^Ac-Ala-NH2; for Relative Velocity, X=NH2: Ac-Arg-His-Lys-Lys^Ac-NH2
T1 sequence (Q96EB6 1-747): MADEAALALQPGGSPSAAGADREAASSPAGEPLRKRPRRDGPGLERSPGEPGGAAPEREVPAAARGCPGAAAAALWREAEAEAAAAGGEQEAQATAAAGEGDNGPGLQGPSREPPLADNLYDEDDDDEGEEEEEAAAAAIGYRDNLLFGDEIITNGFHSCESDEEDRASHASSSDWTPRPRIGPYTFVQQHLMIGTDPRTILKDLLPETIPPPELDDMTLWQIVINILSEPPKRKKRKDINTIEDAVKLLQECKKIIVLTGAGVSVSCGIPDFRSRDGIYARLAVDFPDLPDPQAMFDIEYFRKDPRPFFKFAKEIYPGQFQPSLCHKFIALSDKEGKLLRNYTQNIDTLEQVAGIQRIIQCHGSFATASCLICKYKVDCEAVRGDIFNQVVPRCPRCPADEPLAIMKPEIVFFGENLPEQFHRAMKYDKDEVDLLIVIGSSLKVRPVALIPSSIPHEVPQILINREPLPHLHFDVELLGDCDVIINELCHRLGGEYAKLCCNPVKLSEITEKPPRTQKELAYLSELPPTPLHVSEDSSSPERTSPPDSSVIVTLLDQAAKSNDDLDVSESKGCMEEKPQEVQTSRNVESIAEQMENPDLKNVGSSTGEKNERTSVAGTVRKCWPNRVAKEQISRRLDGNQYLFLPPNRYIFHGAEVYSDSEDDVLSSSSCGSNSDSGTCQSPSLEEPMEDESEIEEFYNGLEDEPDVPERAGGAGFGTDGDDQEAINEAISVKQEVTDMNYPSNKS
Protocol: Bovine glutamate dehydrogenase (GDH), α-ketoglutarate, NADH and NAD^+ were from Sigma Chemical Company. […] The nicotinamidase PNC1 was prepared as described by Denu and colleagues (Smith et al. (2009) Anal Biochem 394, 101-109). To determine the interaction of STACs with SIRT1 two kinetic methods were employed. […] (2007) Nature 450, 712-716). The other, used with peptides of general structure […], used a continuous, enzyme-coupled method reported previously (Smith et al. (2009) Anal Biochem 394, 101-109), in which the SRT1 product nicotinamide is first converted into nicotinic acid and ammonia by the action of PNC1, and the ammonia then used by GDH to convert α-ketoglutarate into glutamate. This reaction occurs with oxidation of NADH to NAD^+ which is accompanied by a change in absorbance at 340 nm (Δε340=-6,200 M^-1 cm^-1). The kinetic experiments used to characterize activators were run on a Perkin Elmer Lambda 25 spectrophotometer equipped with a water-jacketed, eight-cell changer maintained at 25° C. In a typical kinetic experiment, all components of the reaction solution except SIRT1 were added to a 1 mL cuvette and allowed to reach thermal equilibrium. Final concentrations of the coupling system components were: 1 μM PNC1, 0.23 mM NADH, 3.4 mM α-ketoglutarate, and 20 U/mL bovine GDH. This solution also contained peptide substrate, NAD^.0., and activator, at concentrations indicated in the text. The final DMSO concentration was kept constant at 1%, and the buffer used in these experiments was 50 mM HEPES, 150 mM NaCl, pH 7.5. While the system was reaching thermal equilibrium, the absorbance was monitored to provide an accurate estimate of the background rate, which was subtracted from the reaction rate after the addition of SIRT1. Activator titrations were plotted as relative velocity (i.e., the ratio of vx, velocity in the presence of activator X, to vo, velocity in the absence of activator) vs. [X]o, initial concentration of activator, and fit by nonlinear least-squares to the mechanism-independent expression for enzyme activation of […] the maximum relative velocity (i.e., vx/vo at infinite [X]o) and EC50 is the activator concentration at which vx/vo=(RVmax-1)/2. EC50 is a function of the kinetic mechanisms of both catalysis and activation, and the concentrations of substrates.

[4] = [SRT]o = 5 μM, [peptide]o ≦ Km, [NAD+] = 70 μM
[5] = full titration, 3-5 independent experiments

SMILES	Kd [1]	Kd [2]	Kd for binding to Ac-Arg-His-Lys-Lys^Ac-X, X=PheNH2 [2]	Relative Velocity, X=AMC ([3]; [SRT]o = 5 μM, [peptide]o ≦ Km, [NAD+] = 70 μM, Ac-Arg-His-Lys-Lys^Ac-AMC, listed as 22)	Relative Velocity, X=Ala-NH2 [3, 4]	Relative Velocity, X=NH2 [3, 4]	Relative Velocity, X=NH2 ([3]; [SRT]o = 5 μM, [peptide]o ≦ Km, [NAD+] = 70 μM, listed as 22)	Relative Velocity, X=Trp-NH2 ([3]; [SRT]o = 5 μM, [peptide]o ≦ Km, [NAD+] = 70 μM, Ac-Arg-His-Lys-Lys^Ac-Trp-NH2, listed as 22)	EC1.5 for activation of deacetylation of Ac-Arg-His-Lys-Lys^Ac-X, X=AMC [3, 5]	EC1.5 for activation of deacetylation of Ac-Arg-His-Lys-Lys^Ac-X, X=TrpNH2 [3, 5]	EC1.5 for activation of deacetylation of Ac-Arg-His-Lys-Lys^Ac-X, X=PheNH2 [3, 5]	RVmax for activation of deacetylation of Ac-Arg-His-Lys-Lys^Ac-X, X=TrpNH2 [3, 5]	EC50 ([3]; full titration, 3-5 independent experiments, read-out: EC50 for activation of deacetylation of Ac-Arg-His-Lys-Lys^Ac-X, X=TrpNH2)
CCCCc1nc(NC2CCNCC2)cc(C(=O)Nc2ccccc2-c2nc3cc(COC4CCNCC4)cnc3s2)n1 [Compound 10, 2-butyl-6-(piperidin-4-ylamino)-N-(2-(6-((piperidin-4-yloxy)methyl)thiazolo[5,4-b]pyridin-2-yl)phenyl)pyrimidine-4-carboxamide]	> 500 µM	190 µM	does bind	activates	0.3	0.6	inhibits	activates	3.1 µM	1.9 µM			
COc1cc(C(=O)Nc2ccccc2-c2cn3c(CN4CCNCC4)csc3n2)cc(OC)c1OC [SRT1460]	> 500 µM	> 500 µM	no binding		1.1	0.8				5.0 µM	26.0 µM	4.1±0.1	27 ± 8 µM
